Laboratory results taken from US11000033B2, “Ketone or oxime compound, and herbicide” (NISSAN CHEMICAL CORPORATION, priority 2014, dated 2021).

Tests used:
Assay type in all cases: in vivo
Scirpus juncoides = test: Test Example 1: herbicidal activity, application before weed generation in submerged conditions (symbol B); details: application herbicide amount 320 g/ha
Method in brief: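 Weeds are sown into submerged alluvial soil alongside transplanted 2.5-leaf rice, and the compound, as an emulsion diluted to a set rate, is applied onto the water before emergence. Rating on the 0–5 herbicidal-ratio scale follows 3 weeks of greenhouse growth at 25–30 °C.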

Setaria viridis [1] = test: Test Example 4: herbicidal effect by soil treatment (symbol G); details: application herbicide amount 320 g/ha
Method in brief: (§1)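 Seeds were sown in sterilized diluvial soil, covered with about 1.5 cm of soil, and the soil surface was sprayed with a water-diluted emulsion of the compound at a predetermined rate. Plants grew in a greenhouse at 25° C. to 30° C.; effects were scored visually 3 weeks after application.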

Avena fatua = test: Test Example 4: herbicidal effect by soil treatment (symbol I); details: application herbicide amount 320 g/ha
Method in brief: as §1

Alopecurus myosuroides [2] = test: Test Example 4: herbicidal effect by soil treatment (symbol J); details: application herbicide amount 320 g/ha
Method in brief: as §1

Lolium multiflorum Lam. = test: Test Example 4: herbicidal effect by soil treatment (symbol K); details: application herbicide amount 320 g/ha
Method in brief: as §1

Abutilon theophrasti = test: Test Example 4: herbicidal effect by soil treatment (symbol M); details: application herbicide amount 320 g/ha
Method in brief: as §1

Amaranthus retroflexus [3] = test: Test Example 4: herbicidal effect by soil treatment (symbol N); details: application herbicide amount 320 g/ha
Method in brief: as §1

Stellaria media = test: Test Example 4: herbicidal effect by soil treatment (symbol P); details: application herbicide amount 320 g/ha
Method in brief: as §1

Galium spurium [4] = test: Test Example 4: herbicidal effect by soil treatment (symbol Q); details: application herbicide amount 320 g/ha
Method in brief: as §1

corn = test: Test Example 4: effect on crop by soil treatment (symbol c); details: application herbicide amount 320 g/ha
Method in brief: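 The test used sterilized diluvial soil. Seed was set down in spots and overlaid with about 1.5 cm of soil before growth in a greenhouse kept at 25° C. to 30° C.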

soybean [5] = test: Test Example 4: effect on crop by soil treatment (symbol d); details: application herbicide amount 320 g/ha
Method in brief: (§2)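 Grown at 25° C. to 30° C. in a greenhouse, the crops came from seed sown spot-wise in sterilized diluvial soil under roughly 1.5 cm of covering soil.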

rice = test: Test Example 4: effect on crop by soil treatment (symbol b); details: application herbicide amount 320 g/ha
Method in brief: as §2

wheat [6] = test: Test Example 4: effect on crop by soil treatment (symbol e); details: application herbicide amount 320 g/ha
Method in brief: as §2

Digitaria ciliaris = test: Test Example 5: herbicidal effect by foliage application, plastic box (symbol F); details: 320 g/ha, 3 weeks after application
Method in brief: (§3)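 Sowing in sterilized diluvial soil, 14 days' greenhouse growth at 25° C. to 30° C., then uniform small-sprayer foliar application of aqueous emulsion dilution; plants scored three weeks afterwards.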

Setaria viridis [7] = test: Test Example 5: herbicidal effect by foliage application, plastic box (symbol G); details: 320 g/ha, 3 weeks after application
Method in brief: as §3

[8] = tested on: Echinochloa crus-galli var. crus-galli; test: Test Example 5: herbicidal effect by foliage application, plastic box (symbol H); details: 320 g/ha, 3 weeks after application
Method in brief: as §3

Alopecurus myosuroides [9] = test: Test Example 5: herbicidal effect by foliage application, plastic box (symbol J); details: 320 g/ha, 3 weeks after application
Method in brief: as §3

Amaranthus retroflexus [10] = test: Test Example 5: herbicidal effect by foliage application, plastic box (symbol N); details: 320 g/ha, 3 weeks after application
Method in brief: as §3

Galium spurium [11] = test: Test Example 5: herbicidal effect by foliage application, plastic box (symbol Q); details: 320 g/ha, 3 weeks after application
Method in brief: as §3

soybean [12] = test: Test Example 5: effect on crop by foliage application, plastic box (symbol d); details: 320 g/ha, 3 weeks after application
Method in brief: (§4)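 Box culture: sterile diluvial soil, seeds spot-sown, ~1.5 cm cover, raised under glass at 25–30° C.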

rice plant = test: Test Example 5: effect on crop by foliage application, plastic box (symbol b); details: 320 g/ha, 3 weeks after application
Method in brief: as §4

wheat [13] = test: Test Example 5: effect on crop by foliage application, plastic box (symbol e); details: 320 g/ha, 3 weeks after application
Method in brief: as §4

SMILES	Herbicidal effect grade, B: Scirpus juncoides (Scirpus juncoides)	Herbicidal effect grade, G: Setaria viridis (Setaria viridis [1])	Herbicidal effect grade, I: Avena fatua (Avena fatua)	Herbicidal effect grade, J: Alopecurus myosuroides (Alopecurus myosuroides [2])	Herbicidal effect grade, K: Lolium multiflorum Lam. (Lolium multiflorum Lam.)	Herbicidal effect grade, M: Abutilon theophrasti (Abutilon theophrasti)	Herbicidal effect grade, N: Amaranthus retroflexus (Amaranthus retroflexus [3])	Herbicidal effect grade, P: Stellaria media (Stellaria media)	Herbicidal effect grade, Q: Galium spurium (Galium spurium [4])	Effect on crop grade, c: corn (corn)	Effect on crop grade, d: soybean (soybean [5])	Effect on crop grade, b: directly sowed rice plant (rice)	Effect on crop grade, e: wheat (wheat [6])	F: Digitaria ciliaris, herbicidal effect (criteria of Test Example 1) (Digitaria ciliaris)	G: Setaria viridis, herbicidal effect (criteria of Test Example 1) (Setaria viridis [7])	H: Echinochloa crus-galli var. crus-galli, herbicidal effect (criteria of Test Example 1) [8]	J: Alopecurus myosuroides, herbicidal effect (criteria of Test Example 1) (Alopecurus myosuroides [9])	N: Amaranthus retroflexus, herbicidal effect (criteria of Test Example 1) (Amaranthus retroflexus [10])	Q: Galium spurium, herbicidal effect (criteria of Test Example 1) (Galium spurium [11])	d: soybean, effect on crop (criteria of Test Example 1) (soybean [12])	further results
CON=C(C)CC1CC(O)=C(c2c(C)cccc2C)C1=O (stereo not drawn) [6-112]	0 (Herbicidal ratio of 5% or lower (almost no effect))	5 (Herbicidal ratio of 90% or more (almost completely withered))	1 (Herbicidal ratio of 5% or higher and lower than 20%)	5 (Herbicidal ratio of 90% or more (almost completely withered))	5 (Herbicidal ratio of 90% or more (almost completely withered))	1 (Herbicidal ratio of 5% or higher and lower than 20%)	1 (Herbicidal ratio of 5% or higher and lower than 20%)	0 (Herbicidal ratio of 5% or lower (almost no effect))	0 (Herbicidal ratio of 5% or lower (almost no effect))	1 (Herbicidal ratio of 5% or higher and lower than 20%)	0 (Herbicidal ratio of 5% or lower (almost no effect))	5 (Herbicidal ratio of 90% or more (almost completely withered))	3 (Herbicidal ratio of 40% or higher and lower than 70%)	5 (Herbicidal ratio of 90% or more (almost completely withered))	5 (Herbicidal ratio of 90% or more (almost completely withered))	5 (Herbicidal ratio of 90% or more (almost completely withered))	5 (Herbicidal ratio of 90% or more (almost completely withered))	1 (Herbicidal ratio of 5% or higher and lower than 20%)	0 (Herbicidal ratio of 5% or lower (almost no effect))	3 (Herbicidal ratio of 40% or higher and lower than 70%)	b: directly sowed rice plant, effect on crop (criteria of Test Example 1) (rice plant): 5 (Herbicidal ratio of 90% or more (almost completely withered)); e: wheat, effect on crop (criteria of Test Example 1) (wheat [13]): 4 (Herbicidal ratio of 70% or higher and lower than 90%)
CC(=O)CC1CC(O)=C(c2c(C)cc(Br)cc2C)C1=O (stereo not drawn) [7-002]	0 (Herbicidal ratio of 5% or lower (almost no effect))	4 (Herbicidal ratio of 70% or higher and lower than 90%)	0 (Herbicidal ratio of 5% or lower (almost no effect))	3 (Herbicidal ratio of 40% or higher and lower than 70%)	5 (Herbicidal ratio of 90% or more (almost completely withered))	0 (Herbicidal ratio of 5% or lower (almost no effect))	0 (Herbicidal ratio of 5% or lower (almost no effect))	0 (Herbicidal ratio of 5% or lower (almost no effect))	0 (Herbicidal ratio of 5% or lower (almost no effect))	0 (Herbicidal ratio of 5% or lower (almost no effect))	0 (Herbicidal ratio of 5% or lower (almost no effect))	5 (Herbicidal ratio of 90% or more (almost completely withered))	0 (Herbicidal ratio of 5% or lower (almost no effect))	5 (Herbicidal ratio of 90% or more (almost completely withered))	3 (Herbicidal ratio of 40% or higher and lower than 70%)	5 (Herbicidal ratio of 90% or more (almost completely withered))	4 (Herbicidal ratio of 70% or higher and lower than 90%)	0 (Herbicidal ratio of 5% or lower (almost no effect))	0 (Herbicidal ratio of 5% or lower (almost no effect))	0 (Herbicidal ratio of 5% or lower (almost no effect))	b: directly sowed rice plant, effect on crop (criteria of Test Example 1) (rice plant): 5 (Herbicidal ratio of 90% or more (almost completely withered)); e: wheat, effect on crop (criteria of Test Example 1) (wheat [13]): 0 (Herbicidal ratio of 5% or lower (almost no effect))
CCc1cc(Br)cc(C)c1C1=C(O)CC(CC(C)=O)C1=O (stereo not drawn) [7-003]	0 (Herbicidal ratio of 5% or lower (almost no effect))	5 (Herbicidal ratio of 90% or more (almost completely withered))	4 (Herbicidal ratio of 70% or higher and lower than 90%)	5 (Herbicidal ratio of 90% or more (almost completely withered))	5 (Herbicidal ratio of 90% or more (almost completely withered))	0 (Herbicidal ratio of 5% or lower (almost no effect))	0 (Herbicidal ratio of 5% or lower (almost no effect))	0 (Herbicidal ratio of 5% or lower (almost no effect))	0 (Herbicidal ratio of 5% or lower (almost no effect))	0 (Herbicidal ratio of 5% or lower (almost no effect))	0 (Herbicidal ratio of 5% or lower (almost no effect))	5 (Herbicidal ratio of 90% or more (almost completely withered))	0 (Herbicidal ratio of 5% or lower (almost no effect))	5 (Herbicidal ratio of 90% or more (almost completely withered))	5 (Herbicidal ratio of 90% or more (almost completely withered))	5 (Herbicidal ratio of 90% or more (almost completely withered))	5 (Herbicidal ratio of 90% or more (almost completely withered))	0 (Herbicidal ratio of 5% or lower (almost no effect))	0 (Herbicidal ratio of 5% or lower (almost no effect))	2 (Herbicidal ratio of 20% or higher and lower than 40%)	b: directly sowed rice plant, effect on crop (criteria of Test Example 1) (rice plant): 5 (Herbicidal ratio of 90% or more (almost completely withered)); e: wheat, effect on crop (criteria of Test Example 1) (wheat [13]): 0 (Herbicidal ratio of 5% or lower (almost no effect))
